From the supplement of paper PMC10331698
± gives the standard deviation of the averaged measurements.

Experiments:
[1] = compound: OCCCCC(F)(F)C(F)(F)C(F)(F)C(F)(F)F [4:4 Fluorotelomer alcohol]; assay: level (log10 ratio to DMSO vehicle control); higher = higher biomarker level / cell amount than vehicle control; details: in DMSO
Method: (§1)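 BioMAP Diversity Plus panel of 12 human primary cell co-culture systems (3C, 4H, LPS, SAg, BT, BF4T, BE3C, CASM3C, HDF3CGF, KF3CT, MyoF, Mphg). Compounds were added 1 h before stimulation and left for 24 h (MyoF 48 h; BT 72 h for soluble read-outs or 6 d for IgG). Biomarkers were read by ELISA, cytotoxicity by SRB, PBMC viability and proliferation by Alamar Blue. Each well value was divided by the mean of 8 DMSO control wells on the same plate and log10 transformed; duplicate blinded samples were tested at 4 concentrations.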

[2] = compound: C=CC(=O)OCCC(F)(F)C(F)(F)C(F)(F)C(F)(F)C(F)(F)C(F)(F)C(F)(F)C(F)(F)F [8:2 Fluorotelomer acrylate]; assay: as above; details: in DMSO
Method: as §1

| Test System | level (log10) ([1]; 6700 nM) | level (log10) ([1]; 20000 nM) | level (log10) ([1]; 60000 nM) | level (log10) ([2]; 6700 nM) | level (log10) ([2]; 20000 nM) | level (log10) ([2]; 60000 nM) |
| --- | --- | --- | --- | --- | --- | --- |
| BF4T:CCL26/Eotaxin-3 | -0.0205 ± 0.046 | -0.0015 ± 0.015 | 0.0105 ± 0.047 | -0.0555 ± 0.012 | -0.0785 ± 0.079 | -0.098 ± 0.12 |
| BF4T:MMP-3 | 0.0075 ± 0.021 | 0.017 ± 0.041 | 0.0295 ± 0.067 | -0.014 ± 0.0057 | -0.022 ± 0.0057 | 0.0085 ± 0.028 |
| 3C:CXCL9/MIG | 0.0075 ± 0.0035 | -0.01 ± 0.0014 | 0.007 ± 0.0028 | -0.0135 ± 0.011 | -0.005 ± 0.0042 | 0.01 ± 0.018 |
| SAg:SRB | 0.0005 ± 0.0021 | 0.0085 ± 0.015 | -0.0055 ± 0.0035 | -0.004 ± 0.0028 | -0.0055 ± 0.011 | 0.001 ± 0.014 |
| SAg:CD40 | 0.01 ± 0.016 | 0.014 ± 0.0042 | 0.005 ± 0.0042 | -0.0085 ± 0.00071 | -0.0075 ± 0.0021 | -0.01 ± 0.017 |
| BF4T:PAI-I | 0.0065 ± 0.0078 | 0.011 ± 0.0099 | 0.0125 ± 0.012 | -0.0035 ± 0.0064 | -0.0055 ± 0.0035 | 0.007 ± 0.017 |
| SAg:CD62E/E-Selectin | -0.001 ± 0.0014 | -0.01 ± 0.0071 | -0.014 ± 0.028 | -0.0125 ± 0.00071 | 0.0205 ± 0.03 | -0.009 ± 0.025 |
| SAg:Proliferation | -0.026 ± 0.014 | -0.0185 ± 0.0035 | -0.005 ± 0.047 | 0.0035 ± 0.022 | -0.0625 ± 0.0064 | -0.0055 ± 0.043 |
| BF4T:tPA | -0.0095 ± 0.011 | -0.01 | 0.0205 ± 0.036 | -0.046 ± 0.013 | -0.0635 ± 0.023 | -0.0465 ± 0.012 |
| LPS:sPGE2 | 0.0035 ± 0.0092 | -0.015 ± 0.0099 | -0.015 ± 0.055 | -0.118 ± 0.005 | -0.102 ± 0.044 | -0.069 ± 0.03 |
| BE3C:CXCL10/IP-10 | -0.0035 ± 0.0021 | 0 | 0.014 ± 0.017 | -0.0215 ± 0.015 | -0.0165 ± 0.023 | 0.0005 ± 0.05 |
| LPS:M-CSF | 0.0085 ± 0.0078 | -0.001 ± 0.017 | 0.018 ± 0.0085 | 0.001 ± 0.0085 | -0.006 ± 0.023 | -0.03 ± 0.0014 |
| BT:sIL-17A | 0.026 ± 0.12 | -0.003 ± 0.0099 | -0.111 ± 0.061 | 0.0205 ± 0.054 | 0.0765 ± 0.13 | -0.141 ± 0.084 |
| SAg:CXCL8/IL-8 | 0.0075 ± 0.0021 | 0.002 ± 0.0057 | -0.0015 ± 0.025 | -0.021 ± 0.0099 | -0.029 ± 0.0099 | -0.0185 ± 0.043 |
| LPS:CD40 | -0.0175 ± 0.063 | -0.0095 ± 0.028 | -0.042 ± 0.027 | -0.008 ± 0.017 | -0.0285 ± 0.036 | -0.031 ± 0.016 |
| SAg:PBMC Cytotoxicity | -0.0115 ± 0.015 | 0.014 ± 0.011 | 0.0195 ± 0.03 | -0.01 ± 0.013 | -0.006 ± 0.027 | -0.0005 ± 0.05 |
| SAg:CD69 | 0.009 ± 0.0057 | -0.002 ± 0.0028 | 0.001 ± 0.02 | -0.01 ± 0.027 | -0.025 ± 0.016 | -0.0295 ± 0.032 |
